{"source": "paper PMC12029898", "about": "“Cellular Metabolomics Reveals Differences in the Scope of Liver Protection Between Ammonium-Based Glycyrrhizinate and Magnesium Isoglycyrrhizinate” (Metabolites, 2025)", "format_in_all_cases": "cell-based, human", "key": {"[1]": {"test_system": "11β-hydroxysteroid dehydrogenase type 1 (11β-HSD1)", "assay": "ELISA of protein expression in LO2 cells: 11β-HSD1", "conditions": "16 mM APAP, 600 μM, 48 h", "protocol": "(§1) The expression levels of glutamylcysteine synthetase (GCL), glutathione synthetase (GS), and 11β-hydroxysteroid dehydrogenase type 1 (11β-HSD1) in cells were quantified using commercially available enzyme-linked immunosorbent assay (ELISA) kits (Shanghai Aimeng Youning Biotechnology Co., Ltd., Shanghai, China). Cells in the logarithmic growth phase were seeded into 6-well plates at a density of 3 × 10^4 cells per well, pre-incubated for 24 h, and subsequently exposed to 16 mM APAP with concurrent administration of MONO, DIAM, and MAGN at a final concentration of 600 μM for 48 h. Following three PBS washes, cells were harvested using cell scrapers. Total protein content was determined by the Bradford assay, and samples were normalized to equivalent protein concentrations prior to quantitative analysis of target proteins according to the manufacturer’s protocols."}, "LO2 cells [2]": {"test_system": "LO2 cells", "assay": "Hepatocyte protection rate in APAP-induced LO2 cells (MTT)", "conditions": "for liver protection rate: 16 mM APAP; for hepatocyte protection (therapeutic effect): 16 mM APAP, 200, 400 and 600 μM", "protocol": "Assessment of hepatocyte-protective effects: Cells in the logarithmic growth phase were seeded onto a 96-well plate at a density of 4000 cells per well, followed by incubation at 37 °C in an atmosphere containing 5% CO2. After 24 h of incubation, cells were treated with 16 mM APAP, followed by the addition of MONO, DIAM, and MAGN at three escalating concentrations (200, 400, and 600 μM for each compound). The cell survival rate was quantitatively evaluated using MTT method. The protective efficacy of the compounds was then calculated employing the formula outlined below.(1) Hepatocytes protection rate=AGlycyrrhizinate−AAPAP/Anormal−AAPAP×1"}, "LO2 cells [3]": {"test_system": "LO2 cells", "assay": "Cell metabolomics (UPLC-MS/MSe) of APAP-injured LO2 cells, differential metabolites DIAM vs MAGN", "conditions": "600 μM, 48 h", "protocol": "LC-MS/MS analysis was conducted utilizing a Waters Acquity H UPLC system, interfaced with a Q-MS detector (Xevo G3 QTof, Waters, Milford, MA, USA). Chromatographic separation of metabolites was achieved on a BEH C18 Column (1.7 µm, 2.1 mm × 100 mm, Waters), maintained at a temperature of 40 °C. The injector sample chamber was maintained at 4 °C to ensure optimal sample handling. For positive ion analysis, the mobile phase comprised two solvents, 0.1% formic acid in water (solvent A) and acetonitrile (solvent B), delivered at a flow rate of 300 μL/min. The elution gradient was programmed as follows (acetonitrile percentage): 0–1 min 5%, 1–2 min 5–30%, 2–4 min 30–50%, 4–16 min 50–90%, 19–21 min 95%, 21–21.1 min 95–5%, and 21.1–23 min 5%. The capillary, sample cone, and source offset were set as 2.18 kV, 40, and 30. The temperatures of the source and desolvation were 100 and 600 °C. The gas flow of the cone gas and desolvation gas was set as 50 and 800 L/h. For the negative ion mode, the mobile phase consisted of 10 mM ammonium acetate (solvent A) and acetonitrile (solvent B), delivered at a flow rate of 300 μL/min. The elution gradient was programmed as follows: 0–1 min, 5%; 1–3 min, 5–80%; 3–4 min, 80–82%; 4–6 min, 82–88%; 6–25 min, 88–92%; 25–27 min, 92–95%; 27–27.1 min, 95–5%; 27.1–29 min, 5%. The mass spectrometry conditions were similar to those employed in the positive mode, with the exception of the capillary voltage, which was set to 2 kV. All samples were analyzed using an ESI source in MSe full scan mode, with a mass range spanning from m/z 50 to 2000 and a scan time of 0.5 s. Additionally, an automatic calibration system was employed to automatically adjust the MS and MSe parameters every 10 s.\nLO2 cells in the logarithmic growth phase were seeded into a 6-well plate at a density of 3 × 10^4 cells per well and incubated overnight under conditions of 37 °C and 5% CO2. Subsequently, varying concentrations of APAP were introduced, and MONO, DIAM, and MAGN were dissolved in the culture medium prior to their addition to the wells, ensuring a final concentration of 600 μM. The cells were then exposed to these samples for 48 h, following which the culture medium was discarded. The cells were rinsed with pre-cooled PBS at 4 °C and subsequently inactivated by the addition of 80% methanol maintained at a temperature below −20 °C. The cells were scraped off and homogenized using a cell disruptor for 3 min in an ice bath. The homogenized samples were centrifuged at 7500× g for 20 min at 4 °C, and the resultant supernatant was collected and dried using nitrogen gas. The dried samples were redissolved in 80% methanol at −20 °C, vortexed for 1 min, sonicated for 30 s, and then centrifuged again at 7500× g for 20 min at 4 °C. A total of 10 μL was allocated from each sample and mixed as a quality control (QC) sample, while 5 μL of the supernatant was subjected to UPLC-MS/MSe data acquisition on the instrument. The entire procedure was repeated in parallel for all samples, with a total of six replicates performed.\nFirstly, the raw data in the “.raw” format were imported into Progenesis QI software (Waters, Milford, MA, USA). This processing encompassed peak alignment, deconvolution, denoising, and other essential steps, resulting in the extraction of crucial information including retention time, charge-to-mass ratio, compound names, peak areas, and related parameters. To ensure data comparability and accuracy, each peak was then normalized against the total ion intensity, yielding a standardized matrix of retention time, peak area, and m/z values. […] Concurrently, the processed data were imported into SIMCA-P 14.0 software (Umetrics, Umeaa, Sweden) for advanced multivariate statistical analysis, encompassing principal component analysis (PCA) and supervised Orthogonal Partial Least Squares Discriminant Analysis (OPLS-DA). […]"}, "[4]": {"test_system": "glutathione synthetase (GS)", "assay": "ELISA of protein expression in LO2 cells: GS", "conditions": "16 mM APAP, 600 μM, 48 h", "protocol": "as §1"}, "[5]": {"test_system": "glutamylcysteine synthetase (GCL)", "assay": "ELISA of protein expression in LO2 cells: GCL", "conditions": "16 mM APAP, 600 μM, 48 h", "protocol": "as §1"}}}
{"smiles": "CC1(C)[C@@H](O[C@H]2O[C@H](C(=O)O)[C@@H](O)[C@H](O)[C@H]2O[C@@H]2O[C@H](C(=O)O)[C@@H](O)[C@H](O)[C@H]2O)CC[C@]2(C)[C@H]3C(=O)C=C4[C@@H]5C[C@@](C)(C(=O)O)CC[C@]5(C)CC[C@@]4(C)[C@]3(C)CC[C@@H]12", "note": "[DIAM, diammonium glycyrrhizinate]", "values": [{"measurement": "11β-HSD1 expression", "setting": "[1]", "value": "most pronounced upregulation"}, {"measurement": "liver protection rate", "setting": "LO2 cells [2]; 400 μM", "value": "comparable liver protection rates, which were statistically indistinguishable and surpassed that of MONO"}, {"measurement": "hepatocyte protection (therapeutic effect)", "setting": "LO2 cells [2]", "value": "concentration-dependent therapeutic effects"}, {"measurement": "FC of 3-(10Z)-10-Heptadecen-1-ylphenol", "setting": "LO2 cells [3]; highest group DIAM vs MAGN", "value": 1.68}, {"measurement": "FC of 7-Dehydrocholesterol benzoate", "setting": "LO2 cells [3]; highest group DIAM vs MAGN", "value": ">10"}, {"measurement": "FC of 8-Demethyl meiqx", "setting": "LO2 cells [3]; highest group DIAM vs MAGN", "value": 1.92}, {"measurement": "FC of 25-Hydroxyvitamin D2", "setting": "LO2 cells [3]; highest group DIAM vs MAGN", "value": 3.85}, {"measurement": "FC of Ammonium glycyrrhizate", "setting": "LO2 cells [3]; highest group DIAM vs MAGN", "value": 2.12}, {"measurement": "FC of Argiotoxin 659", "setting": "LO2 cells [3]; highest group DIAM vs MAGN", "value": 2.98}, {"measurement": "FC of Butyroin", "setting": "LO2 cells [3]; highest group DIAM vs MAGN", "value": 1.23}, {"measurement": "FC of C14 Ceramide", "setting": "LO2 cells [3]; highest group DIAM vs MAGN", "value": 1.20}, {"measurement": "FC of C16 Lactosylceramide (d18:1/16:0)", "setting": "LO2 cells [3]; highest group DIAM vs MAGN", "value": 1.24}, {"measurement": "FC of CETYL BENZOATE", "setting": "LO2 cells [3]; highest group DIAM vs MAGN", "value": 1.37}, {"measurement": "FC of Cerlapirdine", "setting": "LO2 cells [3]; highest group DIAM vs MAGN", "value": ">10"}, {"measurement": "FC of Ergocryptine", "setting": "LO2 cells [3]; highest group DIAM vs MAGN", "value": 1.92}, {"measurement": "FC of Euscaphic acid", "setting": "LO2 cells [3]; highest group DIAM vs MAGN", "value": 4.79}, {"measurement": "FC of Floctafenine", "setting": "LO2 cells [3]; highest group DIAM vs MAGN", "value": 4.41}, {"measurement": "FC of Glabric acid", "setting": "LO2 cells [3]; highest group DIAM vs MAGN", "value": ">10"}, {"measurement": "FC of Glycerol phenylbutyrate", "setting": "LO2 cells [3]; highest group DIAM vs MAGN", "value": 1.36}, {"measurement": "FC of Glycyrrhetaldehyde", "setting": "LO2 cells [3]; highest group DIAM vs MAGN", "value": ">10"}, {"measurement": "FC of Glycyrrhizin", "setting": "LO2 cells [3]; highest group DIAM vs MAGN", "value": 1.24}, {"measurement": "FC of Gypsogenin", "setting": "LO2 cells [3]; highest group DIAM vs MAGN", "value": 1.79}, {"measurement": "FC of N-eicosanoylsphinganine", "setting": "LO2 cells [3]; highest group DIAM vs MAGN", "value": 2.07}, {"measurement": "FC of N-tetracosanoylsphinganine", "setting": "LO2 cells [3]; highest group DIAM vs MAGN", "value": ">10"}, {"measurement": "FC of Onnamide A", "setting": "LO2 cells [3]; highest group DIAM vs MAGN", "value": 2.42}, {"measurement": "FC of Pinnatoxin G", "setting": "LO2 cells [3]; highest group DIAM vs MAGN", "value": 1.55}, {"measurement": "FC of Prednisolone sodium tetrahydrophthalic", "setting": "LO2 cells [3]; highest group DIAM vs MAGN", "value": 1.66}, {"measurement": "FC of Pristimerin", "setting": "LO2 cells [3]; highest group DIAM vs MAGN", "value": 1.26}, {"measurement": "FC of Propapyriogenin A2", "setting": "LO2 cells [3]; highest group DIAM vs MAGN", "value": 6.06}, {"measurement": "FC of Sampangine", "setting": "LO2 cells [3]; highest group DIAM vs MAGN", "value": ">10"}, {"measurement": "FC of Sphingosine-1-phosphate (d16:1)", "setting": "LO2 cells [3]; highest group DIAM vs MAGN", "value": 3.78}, {"measurement": "FC of Stanozolol", "setting": "LO2 cells [3]; highest group DIAM vs MAGN", "value": 1.81}, {"measurement": "FC of Testosterone ketolaurate", "setting": "LO2 cells [3]; highest group DIAM vs MAGN", "value": 1.67}, {"measurement": "FC of Tetrahydrospirilloxanthin", "setting": "LO2 cells [3]; highest group DIAM vs MAGN", "value": 1.29}, {"measurement": "FC of Tirilazad", "setting": "LO2 cells [3]; highest group DIAM vs MAGN", "value": 1.74}, {"measurement": "FC of Tisocalcitate", "setting": "LO2 cells [3]; highest group DIAM vs MAGN", "value": 1.39}, {"measurement": "FC of Trametenolic acid", "setting": "LO2 cells [3]; highest group DIAM vs MAGN", "value": ">10"}, {"measurement": "FC of Varespladib", "setting": "LO2 cells [3]; highest group DIAM vs MAGN", "value": 1.71}]}
{"smiles": "CC1(C)[C@@H](O[C@H]2O[C@H](C(=O)O)[C@@H](O)[C@H](O)[C@H]2O[C@@H]2O[C@H](C(=O)O)[C@@H](O)[C@H](O)[C@H]2O)CC[C@]2(C)[C@H]3C(=O)C=C4[C@H]5C[C@@](C)(C(=O)O)CC[C@]5(C)CC[C@@]4(C)[C@]3(C)CC[C@@H]12", "note": "[MAGN, magnesium isoglycyrrhizinate]", "values": [{"measurement": "liver protection rate", "setting": "LO2 cells [2]; 400 μM", "value": "comparable liver protection rates, which were statistically indistinguishable and surpassed that of MONO"}, {"measurement": "liver protection rate", "setting": "LO2 cells [2]; 600 μM", "value": "superior protective rate compared to DIAM"}, {"measurement": "hepatocyte protection (therapeutic effect)", "setting": "LO2 cells [2]", "value": "concentration-dependent therapeutic effects"}, {"measurement": "GSH-to-GSSG ratio", "setting": "LO2 cells [3]; MAGN compared to DIAM", "value": "stable"}, {"measurement": "FC of Alpha-Cehc", "setting": "LO2 cells [3]; highest group MAGN vs DIAM", "value": 1.21}, {"measurement": "FC of Dioleoylphosphatidylserine", "setting": "LO2 cells [3]; highest group MAGN vs DIAM", "value": 1.92}, {"measurement": "FC of GSH", "setting": "LO2 cells [3]; highest group MAGN vs DIAM", "value": 1.24}, {"measurement": "FC of GSSG", "setting": "LO2 cells [3]; highest group MAGN vs DIAM", "value": 1.28}, {"measurement": "FC of Menaquinol-8", "setting": "LO2 cells [3]; highest group MAGN vs DIAM", "value": 1.68}, {"measurement": "FC of N-[(15Z)-tetracosenoyl]sphing-4-enine-1-phosphocholine", "setting": "LO2 cells [3]; highest group MAGN vs DIAM", "value": 2.55}, {"measurement": "FC of Solanidine", "setting": "LO2 cells [3]; highest group MAGN vs DIAM", "value": 1.32}, {"measurement": "GS expression", "setting": "[4]", "value": "remained comparable to DIAM-treated control"}, {"measurement": "intracellular GCL levels", "setting": "[5]", "value": "significantly elevated"}]}
